Columns and labels:
[1] = molecular target: T1, C-X-C chemokine receptor type 2 (Homo sapiens, UniProt P25025); assay: (§1) Assay Drug Dev Technol. 2007 February; 5(1); 137-44).; format: cell-based
T1 sequence (P25025 whole entry): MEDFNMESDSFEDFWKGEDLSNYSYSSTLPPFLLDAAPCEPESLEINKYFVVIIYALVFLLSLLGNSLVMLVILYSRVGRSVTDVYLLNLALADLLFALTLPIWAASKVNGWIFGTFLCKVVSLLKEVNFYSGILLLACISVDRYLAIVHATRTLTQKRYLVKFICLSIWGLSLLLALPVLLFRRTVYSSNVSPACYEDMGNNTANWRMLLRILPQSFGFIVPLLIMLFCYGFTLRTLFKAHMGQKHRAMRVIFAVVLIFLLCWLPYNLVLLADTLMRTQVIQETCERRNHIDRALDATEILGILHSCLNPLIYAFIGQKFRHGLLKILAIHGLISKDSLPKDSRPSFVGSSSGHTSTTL

[2] = molecular target: T2, C-X-C chemokine receptor type 1 (Homo sapiens, UniProt P25024); assay: as §1; format: cell-based
T2 sequence (P25024 whole entry): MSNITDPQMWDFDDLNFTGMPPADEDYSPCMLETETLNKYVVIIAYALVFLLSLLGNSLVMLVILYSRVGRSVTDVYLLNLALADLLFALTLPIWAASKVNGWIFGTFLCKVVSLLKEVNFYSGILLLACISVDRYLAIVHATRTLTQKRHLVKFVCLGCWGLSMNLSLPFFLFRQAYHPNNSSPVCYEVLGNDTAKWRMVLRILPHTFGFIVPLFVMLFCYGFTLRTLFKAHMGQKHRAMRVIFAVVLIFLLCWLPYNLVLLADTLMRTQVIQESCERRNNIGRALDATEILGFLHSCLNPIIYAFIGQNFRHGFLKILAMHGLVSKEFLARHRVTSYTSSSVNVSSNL

- IC50 [1]: 157 nM
- IC50 [2]: 3350 nM
Structure (SMILES): Cc1ccc(C(Nc2c(Nc3cccc(C(=O)N(C)C)c3O)c(=O)c2=O)C2(C)CCOCC2)o1 (configuration not stated)

From ChEMBL document CHEMBL3886212, “Disubstituted 3,4-diamino-3-cyclobutene-1,2-dione compounds for use in the treatment of chemokine-mediated diseases” (2015)
